Patent US20220339122A1, “METHODS FOR THE TREATMENT OF DISEASES ASSOCIATED WITH DYSREGULATED ACTIVATION AND RECRUITMENT OF NEUTROPHILS” (Chang Gung University, priority 2021, published 2022)

Legend:
[1] = Superoxide scavenging capacity, WST-1 reduction; type: biochemical; details: WST-1 reduction at 450 nm
Protocol: FIG. 1 Bletinib suppressed superoxide anion production in stimulated human neutrophils. Neutrophils (6×10^5 cells/mL) were incubated with 0.1% DMSO or […] bletinib for 5 min before activation with stimuli. Superoxide anion production was induced by (A) fMLF, (B) MMK-1, (C) NaF, or (D) PMA and then measured using ferricytochrome c reduction method. (E) Cytotoxicity was assessed using LDH release. (F) Superoxide scavenging capacity of bletinib was assessed in a xanthine/xanthine oxidase cell-free system. WST-1 reduction was measured through spectrophotometry at 450 nm, with 20 U/mL superoxide dismutase as the positive control.

[2] = tested on: human neutrophils; assay: Intracellular superoxide/ROS production, DHR123 flow cytometry; type: cell-based; details: 0.1-3 μM bletinib; 0.1 μM fMLF; dose-dependent
Protocol: Human neutrophils (2.5×10^6 cells/mL) were labelled using 2 μM dihydrorhodamine 123 (DHR123) at 37° C. for 10 min and then incubated with DMSO or bletinib for 5 min and then stimulated with 0.1 μM fMLF/0.5 μg/mL CB for 15 min. The fluorescence intensity was detected through flow cytometry to evaluate intracellular superoxide anion production of human neutrophils.

[3] = tested on: human neutrophils; assay: Neutrophil elastase (NE) release (degranulation); type: cell-based
Protocol: Human neutrophils (6×10^5 cells/mL) were incubated with DMSO or bletinib after treatment with 1 mM CaCl2 and 100 μM NE substrate (Methoxysuccinyl-Ala-Ala-Pro-Val-p-nitroanilide) at 37° C. for 5 min. Cells were stimulated with fMLF/0.5 μg mL^−1 CB, leukotriene B4 (LTB4)/2 μg mL^−1 CB, NaF/2 μg mL^−1 CB, or MMK-1/0.5 μg mL-1 CB for 10 min before determination of NE release by measuring the change of absorbance at 405 nm in a spectrophotometer.

[4] = tested on: human neutrophils; assay: NET formation, quantification of extracellular DNA with Sytox green; type: cell-based; details: 10 nM PMA; 1-10 μM bletinib
Protocol: Human neutrophils (10^6 cells/mL) resuspended in HBSS with 2.5 μM Sytox green were incubated with DMSO or bletinib for 10 min and stimulated using 10 nM PMA or 10 μg/mL LPS for 3 h. The fluorescence intensity was quantified on a Tecan Infinite 200 reader at 485-535 nm.

[5] = molecular target: Hck (Homo sapiens, UniProt P08631); assay: Cell-free ADP-Glo kinase assay, Hck; type: biochemical; details: 1-10 μM bletinib or 0.1-3 μM PP2; 125 μM ATP; concentration-dependent
Hck, sequence (P08631 whole entry): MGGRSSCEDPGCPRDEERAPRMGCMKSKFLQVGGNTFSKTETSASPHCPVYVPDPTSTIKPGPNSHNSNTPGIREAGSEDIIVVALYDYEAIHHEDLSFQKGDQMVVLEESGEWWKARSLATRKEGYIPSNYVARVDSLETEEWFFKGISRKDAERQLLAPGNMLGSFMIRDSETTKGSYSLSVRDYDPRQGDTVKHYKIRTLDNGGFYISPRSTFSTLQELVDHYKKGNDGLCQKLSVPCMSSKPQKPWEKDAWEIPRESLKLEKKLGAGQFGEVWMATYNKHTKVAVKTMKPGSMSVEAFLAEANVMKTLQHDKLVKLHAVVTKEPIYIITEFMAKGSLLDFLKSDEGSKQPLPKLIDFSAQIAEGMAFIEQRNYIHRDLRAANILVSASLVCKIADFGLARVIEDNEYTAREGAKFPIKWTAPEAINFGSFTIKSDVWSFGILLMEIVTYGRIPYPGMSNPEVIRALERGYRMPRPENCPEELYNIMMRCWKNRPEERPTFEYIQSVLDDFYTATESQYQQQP
Protocol: The kinase activity of SFKs was assessed using an ADP-Glo kinase assay kit (Promega, Fitchburg, USA) according to manufacturer instructions. […] The ADP-Glo reagent was used to end the kinase reaction and remove the remnant ATP; next, the kinase, which converted ADP to ATP, detection reagent was added and incubated for 30 min. Luciferin/luciferase luminescence was determined on an Infinite 200 Pro (Tecan, Switzerland).

[6] = tested on: human neutrophils; assay: Neutrophil adhesion to bEnd.3 cells; type: cell-based; details: 1-10 μM bletinib; fMLF/CB
Protocol: Human neutrophils (10^6 cells/mL) were labelled with Hoechst 33342 and then incubated with DMSO or Bletinib for 5 min. After centrifugation, the cells were resuspended and activated with 0.1 μM fMLF/1 μg/mL CB for 10 min before incubation with bEnd.3 cells at 37° C. for 30 min. After they were washed with HBSS, the cells were fixed with 4% paraformaldehyde and the neutrophils that adhered to the bEnd.3 cells were detected and quantified on a motorised inverted microscope (Olympus, Japan).
Adhesion and transmigration are both crucial steps in the neutrophil recruitment cascade during inflammation. In this example, to examine whether bletinib would interfere the adhesion and transmigration process, human neutrophils (10^6 cells/mL) were first labeled with Hoechst 33342, then pre-treated with bletinib (1-10 μM) and followed by stimulation with fMLF, then incubated with bEnd.3 cells in 37° C. for 30 min. […] Furthermore, IL-8 served as a chemotactic factor for the attraction of neutrophils.

[7] = tested on: human neutrophils; assay: Neutrophil migration, microchemotaxis chamber; type: cell-based
Protocol: A microchemotaxis chamber with 3-μm filters (Millipore) was used to evaluate chemotactic migration of neutrophils. Neutrophils (5×10^6 cells/mL) treated with bletinib or DMSO for 5 min were placed in the top chamber, and 0.1 μM fMLF was added into the bottom chamber. The number of neutrophils that migrated from the top to the bottom chamber after incubation at 5% CO2 for 1 h was counted on a MoxiZ automatic cell counter (ORFLO).

[8] = tested on: CD11b (integrin αM); assay: Surface CD11b expression, flow cytometry; type: cell-based, human
Protocol: Neutrophils (5×10^5 cells/mL) were incubated with bletinib or DMSO for 5 min and then activated through incubation with 0.1 μM fMLF/1 μg/mL CB for 5 min. After centrifugation at 200×g for 8 min at 4° C., the cells were resuspended in 5% bovine serum albumin with FITC-conjugated antibodies against CD18 or CD11b on ice in the dark for 15 min. The fluorescent intensity was then analysed through fluorescence-activated cell sorting.

COc1cc(O)cc(CCc2c(Cc3ccc(O)cc3)ccc(O)c2Cc2ccc(O)cc2)c1 [bletinib, 3,3′-dihydroxy-2′,6′-bis(p-hydroxybenzyl)-5-methoxybibenzyl]
ROS scavenging activity in the cell-free xanthine and xanthine oxidase system [1]: did not exhibit
intracellular ROS production, flow cytometry (DHR123 MFI) [2]: significantly suppressed
IC50 ([3]; Homo sapiens, Neutrophil, fMLF/CB stimulation, read-out: release of NE in fMLF-stimulated human neutrophils, IC50): 530 ± 70 nM
NE release from neutrophils stimulated with LTB4 ([3]; LTB4/CB, 0.1-10 μM bletinib, concentration-dependent): downregulated
NE release from neutrophils stimulated with MMK-1 ([3]; MMK-1/CB, 0.1-10 μM bletinib, concentration-dependent): downregulated
NE release from neutrophils stimulated with NaF ([3]; NaF/CB, 0.1-10 μM bletinib, concentration-dependent): downregulated
NET formation induced by PMA, fluorescent spectrometry (Sytox green) [4]: significantly mitigated
kinase activity of Hck [5]: inhibited
adhesion function of fMLF-activated neutrophils (adhered on bEnd.3 cells) [6]: inhibited
fMLF-induced transwell migration of neutrophils ([7]; 1-10 μM bletinib, 0.1 μM fMLF): significantly reduced
IL-8-induced neutrophil migration ([7]; IL-8, data not shown): inhibited
expression of CD11b in fMLF-stimulated human neutrophils ([8]; 1-10 μM bletinib, 0.1 μM fMLF/CB): significantly attenuated
IL-8-induced CD11b expression ([8]; IL-8, data not shown): restrained
